Source: US20260234159A1, “SMALL MOLECULE TREATMENT OF FATTY LIVER DISEASE AND HCC” (SCANDIEDGE THERAPEUTICS AB, priority 2023, published 2026)

Columns and labels:
[1] = In vivo biosafety study in rats: histopathological and immunohistochemical examination; set-up: species or system Sprague Dawley male rats; settings: 30 mg/kg, seven days
Method: In vivo biosafety studies. Healthy Sprague Dawley male rats (12 weeks old, 250-280 g) were obtained from Atatürk University Experimental Research Center ([…] Turkey) and housed under standard environmental conditions (temperature 20° C.-25° C., humidity 50±20% and 12-hour light/dark diurnal cycle). Food and water were available ad libitum. Rats were randomly separated into one control group and two experimental groups (30 mg/kg/day BX-912 or JNK-IN-5A, n=5). […] The control group were received the same amount of vehicle solution only. After 7 days, rats were anaesthetized, and blood samples were collected from the abdominal aorta for biochemical and haematological analysis. The plasma was separated and stored at -80° C. for further analysis. Major organs such as heart, kidney, liver, muscle, adipose, intestine (duodenum, ileum, jejunum), pancreas, colon, and stomach were collected from all the animals for further analysis. Selected organs were fixed in 10% neutral buffered formalin for histopathological examination. Histopathological examination. […] Immunohistochemical examination. […] Slides were counter stained with hematoxylin.

HepG2 cells = test: MTT cell viability after one week steatosis (ranking of target molecules); format: cell-based, human
In short: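 HepG2 cells, 60,000 per well, kept one week in steatosis medium (high-glucose DMEM, 10 μg/ml insulin, 10 μM T0901317) with 10 μM compound. Medium changed at day 0, 3 and 5. Viability measured by MTT.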

Structure (SMILES) | histological structures of major organs [1] | side effects on the rats [1] | 8-OH-dG expression in liver tissues ([1]; IHC) | cell viability of HepG2 (HepG2 cells)
N#Cc1c(NC(=O)c2cccc3ccccc23)sc2c1CCCC2 [JNK-IN-5A, N-(3-cyano-4,5,6,7-tetrahydrobenzo[b]thiophen-2-yl)-1-naphthamide] | normal histological structures | no side effects | negative | 
N#Cc1c(NC(=O)c2cccc3ccccc23)sc2c1CCN(C(=O)Nc1ccccc1OC(F)(F)F)C2 [PKL-A159] |  |  |  | exceptionally low cell viability
